Laboratory results from paper PMC4595804, “A strategy to discover decoy chemokine ligands with an anti-inflammatory activity” (Scientific Reports, 2015).

Columns and labels:
Assay type in all cases: cell-based
[1] = system: human monocytes; assay: Cytotoxicity in primary monocytes (Alamar Blue); settings: up to 250 μM, 24 h
Method: the wound closure was determined as the difference between wound width at times 0 and 72h. This experiment was repeated three times.
Human primary monocytes were isolated from buffy coats of healthy human blood donors and seeded in 24-well plates (500,000 cells/ml in 1ml) for COX-1/2 activity or 96-well plates for cell viability experiments.
Cells were seeded in 96 well plates (5,000 cells/well in 200µl) for cytotoxicity testing (Alamar […]
doses). After 24h, cytotoxicity was evaluated in the wells using the Alamar Blue method. NaF (250µg/ml) was used as a control in this experiment.
Cyclooxygenase (COX) activity
COX1 mediated prostaglandin E2 (PGE2) release. Monocytes were treated with arachidonic […]
were then collected for the determination of PGE2 by enzyme immunoassay (EIA) […]
COX2 mediated prostaglandin E2 (PGE2) release. Monocytes were incubated with LPS (10U/ml) for 24h to induce COX2 protein synthesis. After renewal of medium (serum free), […]
before AA treatment. The activity of COX2 was determined by measuring PGE2 (Cayman) in the supernatants by EIA. Aspirin (10µM) and diclofenac (10µM) were used as control

[2] = biological target: T1, CXCL11 (Homo sapiens, UniProt O14625); assay: Selectivity, neutraligand protocol, EGFP-CXCR3+ HEK cells; settings: 10 μM compound, 5 nM CXCL11, EGFP-CXCR3+ HEK cells
T1 construct: thioredoxin-hexahistidin (TRX-(His)6) with enterokinase site; made in house; host or cells: E. coli BL21 (DE3)
Method: (§1) Figure 6 (a) Selectivity of CCL17 and CCL22 neutraligands towards 10 chemokines according to the “neutraligand protocol”. […] Each column represents the mean (block) ± SD (bars) of n = 3 experiments performed in triplicate. *p < 0.05; **p < 0.01; ***p < 0.005 as compared to chemokine + DMSO. (b) Chemokine neutraligands inhibited CCR4 endocytosis induced by CCL22 or CCL17. EGFP-CCR4^+ HEK cells were incubated for 30 min with DMSO or chemokine (100 nM CCL22 or CCL17) in the presence or absence of test compounds. […] Cell surface EGFP-tagged CCR4 receptors were measured by EGFP antibody labeling and flow cytometry analysis. CCR4 internalization was expressed as a percentage of total receptor surface expression calculated using control cells incubated with DMSO (100%). Each column represents the mean (block) ± SD (bars) of n = 3 experiments performed in triplicate. *p < 0.05; **p < 0.01; ***p < 0.005 as compared to chemokine alone. (c,d) Inhibition of CCL17 and CCL22- induced CCR4^+HUT78 T cell chemotaxis by neutraligands. […] The number of migrating cells induced by a chemokine alone was set at 100% migration. The number of migrating cells in the presence of chemokine and compounds were expressed as the corresponding percentages. Results were analyzed by fitting the experimental curves (% of migrating cells vs log compound concentration) using the Kaleidagraph software program, and the corresponding IC50 values were calculated. Means and SD values of triplicates were plotted.
(§2) Human cDNAs encoding CCR4 and CXCR3 receptors were cloned in pIRES plasmid (Clontech) while cDNAs encoding CCR2, CCR5, CXCR2 and CXCR4 receptors were cloned in pCEP4 vector (Life technologies). […] Stably EGFP-CCR4^+ HEK cells were selected for 5 weeks with geneticin (G-418, 600μg/ml), and resulting cell clones were checked by fluorescence microscopy and FACS analysis. […]
(§3) Dye loaded cells were placed in the FlexStation 3 (Molecular Devices). Calcium mobilization was measured at 401 and 475 nm emission fluorescence after excitation at 355 nm. […] Raw fluorescence data (at 401 and 475 nm) were exported and the ratio 401/475 was calculated. The calcium response values (height of peak response over baseline) were determined. […] The Z’ factor[29] was calculated according to the following equation: Z’ = 1-(3SD+ + 3SD−)/|Ave+ − Ave−|, where SD+ and Ave+ are respectively the standard deviation and the mean value of the positive controls (chemokine + DMSO), while SD− and Ave− are respectively the standard deviation and the mean value of the negative controls (HEPES-BSA (0.1%) mixed with DMSO, or cells mixed with C-021). Hit molecules were confirmed by performing concentration-response curves and their half maximal inhibitory concentration (IC50) values were calculated using the Kaleidagraph software.

[3] = biological target: T2, CXCL10 (Homo sapiens, UniProt P02778); assay: as above; settings: 10 μM compound, 5 nM CXCL10, EGFP-CXCR3+ HEK cells
T2 construct: (His)6; made in house; host or cells: E. coli BL21 (DE3)
Method: as §1, §2, §3

[4] = biological target: T3, CCL22 W55A (Homo sapiens, UniProt O00626, W55A); assay: Calcium responses induced by chemokine mutant, neutraligand protocol; settings: 10 μM compound, 5 nM chemokine; remaining response
T3 construct: codes for the mature CCL17 or CCL22 with an N-terminal thioredoxin-hexahistidin (TRX- (His)6) tag; TRX-(His)6 (N, cleaved yes); made in house; host or cells: E. coli BL21 (DE3)
Method: (§4) Dye loaded cells were placed in the FlexStation 3 (Molecular Devices). Calcium mobilization was measured at 401 and 475 nm emission fluorescence after excitation at 355 nm. For the primary screening, the ligands (50μl of chemokine mixed with DMSO or test compounds) were added to the cells at 40 s, followed by digitonin addition (50μl) at 100 s to the cells. Molecules were screened at a final concentration of 2μg/ml with 5 nM CCL17 or CCL22. […] Raw fluorescence data (at 401 and 475 nm) were exported and the ratio 401/475 was calculated. The calcium response values (height of peak response over baseline) were determined. Hits were selected by comparing the response amplitude at the time of the chemokine addition ± test compound. The Z’ factor[29] was calculated according to the following equation: Z’ = 1-(3SD+ + 3SD−)/|Ave+ − Ave−|, where SD+ and Ave+ are respectively the standard deviation and the mean value of the positive controls (chemokine + DMSO), while SD− and Ave− are respectively the standard deviation and the mean value of the negative controls (HEPES-BSA (0.1%) mixed with DMSO, or cells mixed with C-021). Hit molecules were confirmed by performing concentration-response curves and their half maximal inhibitory concentration (IC50) values were calculated using the Kaleidagraph software.
(§5) and the denaturated chemokines (disulfite bonds reduced by β-mercaptoethanol). The
(§6) chemokine activity was then, tested in the in vitro assays. […]

[5] = biological target: T4, CCL22 D58A (Homo sapiens, UniProt O00626, D58A); assay: as above; settings: 10 μM compound, 5 nM chemokine; remaining response
T4 construct: codes for the mature CCL17 or CCL22 with an N-terminal thioredoxin-hexahistidin (TRX- (His)6) tag; TRX-(His)6 (N, cleaved yes); made in house; host or cells: E. coli BL21 (DE3)
Method: as §4, §5, §6

T4 sequence (O00626 25-93 D58A): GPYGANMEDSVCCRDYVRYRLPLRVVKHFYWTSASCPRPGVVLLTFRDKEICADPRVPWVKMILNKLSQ
T3 sequence (O00626 25-93 W55A): as the sequence (O00626 25-93 D58A) above, with W31A, A34D counted along it
T2 sequence (P02778 22-98): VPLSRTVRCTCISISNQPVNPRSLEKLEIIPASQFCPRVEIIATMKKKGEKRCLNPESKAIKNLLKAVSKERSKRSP
T1 sequence (O14625 22-94): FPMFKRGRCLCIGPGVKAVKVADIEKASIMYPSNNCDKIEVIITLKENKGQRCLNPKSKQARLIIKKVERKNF

Structure (SMILES)	cell toxicity on human monocytes (Alamar Blue) [1]	effect on calcium responses induced by CXCL11 [2]	effect on calcium responses induced by CXCL10 [3]	calcium response induced by CCL22 W55A preincubated with compound [4]	calcium response induced by CCL22 D58A preincubated with compound [5]
CC(C)=CCn1cnc2c1c(=O)n(C)c(=O)n2C [GPN279, 1,3-dimethyl-7-(3-methylbut-2-enyl)-1H-purine-2,6(3H, 7H)-dione]	absence of cell toxicity	no effect	no effect	neither inhibited WT nor CCL22 mutants	neither inhibited WT nor CCL22 mutants
O=C(OCC(O)CO)c1ccccc1O (stereo not shown) [GPN136, 2,3-dihydroxypropyl 2-hydroxybenzoate]	absence of cell toxicity	no effect	no effect	46.0 ± 3.0%	76.0 ± 3.0%
